Columns and labels:
[1] = tested on: SNU-16 human gastric cancer cell line xenograft; test: Human gastric tumor (HGS) xenograft model; format: in vivo, mice; settings: day 42 after inoculation, 20/kg of compound (vehicle group 645)
Procedure: Human Gastric Tumor Model:
SNU-16 human gastric cancer cell line can be used to generate a xenograft model to determine the effects of a FGFR inhibitor of the present disclosure (test compound) as a single agent treatment to target FGFR-dependent tumor growth. SNU-16 cells are grown in tissue culture as described in Example 2 above. For tumor inoculation, approximately 1×10^7 cells are mixed with Matrigel (1:1) and are implanted into the rear flank of immuno compromised Balb/c nu/nu mice. Tumor-bearing mice are monitored twice weekly in two dimensions using a caliper and the volume expressed in mm^3 using the formula: V=0.5 a×b^2 where a and b are the long and short diameters of the tumor respectively. Once tumor volume reaches a mean average of 175 mm^3 mice are randomized into 3 groups (n=8-10 per group) receiving either vehicle control (0.5% methyl cellulose w/w) or the test compound by oral gavage. Dosing continues for 5-21 days with tumor volumes measured daily or every other day. It is expected that tumor growth will be inhibited in animals treated with the test compound. […] Inhibition of FGFR pathway can be assessed by detection of FGFR auto phosphorylation activity. […] Tumor samples are collected at 8 h or 12 h post the last dosing and FGFR auto phosphorylation activity is determined. […]

SNU-16 cells = test: Inhibition of FGFR2-dependent cell growth (Cell-titer Glo); format: cell-based; settings: Homo sapiens, SNU-16, 72 h, 72 hrs incubation, cell viability, read-out: SNU16 IC50 values
Procedure: The cell-based effects of FGFR inhibitors were determined by measuring inhibition of FGFR-dependent cell line growth. The cell lines SNU-16 was used for these assays. […] Percent inhibition of cell growth was calculated as a percentage of untreated cell viability. The percent inhibition was plotted as a function of log compound concentration. The IC50 was then calculated for each compound using Prism software from GraphPad.

Compound | tumor size [1] | IC50 (SNU-16 cells)
C=CC(=O)N1CCN(CCCn2c(=O)c(-c3c(Cl)c(OC)cc(OC)c3Cl)cc3cnc(NC)nc32)CC1 [8-(3-(4-acryloylpiperazin-1-yl)propyl)-6-(2,6-dichloro-3,5-dimethoxyphenyl)-2-(methylamino)pyrido[2,3-d]pyrimidin-7(8H)-one] | 55 mm3 | 
CNc1ncc2cc(-c3cc(OC)cc(OC)c3Cl)c(=O)n(CCCN3CCN(C(=O)C(C#N)=CC(C)(C)C)CC3)c2n1 [Cpd 5 (table 1), 2-(4-(3-(6-(2-chloro-3,5-dimethoxyphenyl)-2-(methylamino)-7-oxopyrido[2,3-d]pyrimidin-8(7H)-yl)propyl)piperazine-1-carbonyl)-4,4-dimethylpent-2-enenitrile] |  | 27.2 nM
CNc1ncc2cc(-c3c(Cl)c(OC)cc(OC)c3Cl)c(=O)n(CCN3CCN(C(=O)C(C#N)=CC(C)(C)C)CC3)c2n1 [Cpd 3 (table 1), 2-(4-(2-(6-(2,6-dichloro-3,5-dimethoxyphenyl)-2-(methylamino)-7-oxopyrido[2,3-d]pyrimidin-8(7H)-yl)ethyl)piperazine-1-carbonyl)-4,4-dimethylpent-2-enenitrile] |  | 34 nM
CNc1ncc2cc(-c3cc(OC)cc(OC)c3Cl)c(=O)n(CCc3csc(NC(=O)C(C#N)=CC(C)(C)C)n3)c2n1 [Cpd 67 (table 2), N-(4-(2-(6-(2-chloro-3,5-dimethoxyphenyl)-2-(methylamino)-7-oxopyrido[2,3-d]pyrimidin-8(7H)-yl)ethyl)thiazol-2-yl)-2-cyano-4,4-dimethylpent-2-enamide] |  | 936 nM

From patent US10538517B2, “Quinolone derivatives as FGFR inhibitors” (Principia Biopharma, Inc., priority 2015, dated 2020)
